Structures can show the parent of a compound that is named as a salt.
How the values were obtained:
[1] = molecular target: T1, human activated blood coagulation factor X (Homo sapiens, UniProt P00742); assay: Measurement of inhibitory activity for activated blood coagulation factor X (S-2222 chromogenic substrate); type: biochemical; conditions: substrate S-2222, tris-NaCl buffer pH 8.4, 10 minutes at 37° C., absorbance 405 nm
T1 construct: purchased Calbiochem
Method: Measurement of Inhibitory Activity for Activated Blood Coagulation Factor X 2.5 μL of a dimethylsulfoxide solution of a test compound, 187.5 μL of 100 mM tris-200 mM NaCl buffer (pH 8.4) and 50 μL of 1 mM S-2222 (Daiichi Pure Chemicals) aqueous solution were poured into 96 well microplate. Then 10 μL of 0.6 U/mL human activated blood coagulation factor X (Calbiochem) in gelatin-glycine buffer was added and the mixture was incubated for 10 minutes at 37° C. The reaction was terminated with the addition of 50 μL of 60% acetic acid and absorbance (405 nm) was measured by a microplate reader (SPECTRAmax250, Molecular Devices). The group with 2.5 μL of the dimethylsulfoxide solution instead of the test compound solution was defined as the control, and the group with 10 μL of the gelatin-glycine buffer solution instead of human activated blood coagulation factor X was defined as the blank.

human thrombin = molecular target: T2, human thrombin (Homo sapiens, UniProt P00734); assay: Measurement of inhibitory activity for thrombin (S-2238 chromogenic substrate); type: biochemical; conditions: substrate S-2238, tris-NaCl buffer pH 8.4, 10 minutes at 37° C., absorbance 405 nm
T2 construct: human thrombin (Sigma Chemical Company); purchased Sigma Chemical Company
Method: Measurement of Inhibitory Activity for Thrombin
2.5 μL of a dimethylsulfoxide solution of a test compound, 187.5 μL of 100 mM tris-200 mM NaCl buffer (pH 8.4) and 50 μL of 1 mM S-2238 (Daiichi Pure Chemicals) aqueous solution were poured into 96 well microplate. Then 10 μL of 2.0 U/mL human thrombin (Sigma Chemical Company) in gelatin-glycine buffer was added and the mixture was incubated for 10 minutes at 37° C. The reaction was terminated with the addition of 50 μL of 60% acetic acid and absorbance (405 nm) was measured by a microplate reader (SPECTRAmax250, Molecular Devices).
The group with 2.5 μL of the dimethylsulfoxide solution instead of the test compound solution was defined as the control, and the group with 10 μL of the gelatin-glycine buffer solution instead of human thrombin was defined as the blank. The concentration of a test compound that inhibited the absorbance of control by 50% (IC50) was obtained, and this value was used as the index of inhibitory activity for thrombin.

T1 sequence (P00742 235-488 limits assumed): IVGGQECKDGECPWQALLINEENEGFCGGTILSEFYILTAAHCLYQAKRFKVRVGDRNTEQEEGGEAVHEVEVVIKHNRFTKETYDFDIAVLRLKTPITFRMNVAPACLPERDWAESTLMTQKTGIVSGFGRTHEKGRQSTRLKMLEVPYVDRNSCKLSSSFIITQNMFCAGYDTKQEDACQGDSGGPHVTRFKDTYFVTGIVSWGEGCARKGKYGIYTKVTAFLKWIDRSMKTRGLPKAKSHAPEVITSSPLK
T1 sequence (P00742 41-179 partner limits assumed): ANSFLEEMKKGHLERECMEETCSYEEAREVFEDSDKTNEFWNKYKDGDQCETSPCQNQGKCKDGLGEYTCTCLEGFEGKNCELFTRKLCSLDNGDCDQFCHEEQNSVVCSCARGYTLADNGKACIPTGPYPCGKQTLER

Row | IC50 [1] | IC50 (human thrombin) | SMILES
1 | 7.1 nM | 37000 nM | CS(=O)(=O)c1ccccc1-c1ccc(CCNS(=O)(=O)c2cc(C(=N)N)ccc2O)c(NCC(=O)O)c1 [Compound 17, [[4-[2-(5-Carbamimidoyl-2-hydroxybenzenesulfonylamino)ethyl]-2′-methanesulfonylbiphenyl-3-yl]amino]acetic aid hydrochloride]
2 | 77 nM | > 100000 nM | CC(C)c1ccc(CCNS(=O)(=O)c2cc(C(=N)N)ccc2O)c(NCC(=O)O)c1 [Compound 18, [[2-[2-(5-Carbamimidoyl-2-hydroxybenzenesulfonylamino)ethyl]-5-isopropylphenyl]amino]acetic acid]

From US7022689B2, “5-amidino-n-(2-aminophenethyl)-n-hydroxy-benzenesulffonamide derivative, medical composition containing the same, pharmaceutical use thereof and intermediate therefor” (Kissei Pharmaceutical Co., Ltd., priority 2001, dated 2006)
